# Numbers after ± are expanded uncertainties.
# Conditions: Liquid, Closed cell (Static) method
structure (smiles),measurement,setting,value
CCOC(=O)CCC(=O)O [4-ethoxy-4-oxobutanoic acid],vapor or sublimation pressure,417.7 K,1.587 ± 0.031 kPa
same,vapor or sublimation pressure,421.2 K,2.089 ± 0.03 kPa
same,vapor or sublimation pressure,425.1 K,2.591 ± 0.03 kPa
same,vapor or sublimation pressure,428.5 K,3.094 ± 0.029 kPa
same,vapor or sublimation pressure,433 K,3.596 ± 0.032 kPa
same,vapor or sublimation pressure,435.6 K,4.098 ± 0.054 kPa
same,vapor or sublimation pressure,436.7 K,4.601 ± 0.048 kPa
same,vapor or sublimation pressure,439.8 K,5.103 ± 0.2 kPa
same,vapor or sublimation pressure,440.3 K,5.605 ± 0.2 kPa
same,vapor or sublimation pressure,443 K,6.107 ± 0.053 kPa
same,vapor or sublimation pressure,444.3 K,6.61 ± 0.073 kPa
same,vapor or sublimation pressure,445.9 K,7.112 ± 0.065 kPa
same,vapor or sublimation pressure,447.6 K,7.614 ± 0.067 kPa
same,vapor or sublimation pressure,449.1 K,8.117 ± 0.074 kPa
same,vapor or sublimation pressure,450.5 K,8.619 ± 0.072 kPa
same,vapor or sublimation pressure,452.1 K,9.121 ± 0.079 kPa
same,vapor or sublimation pressure,453.2 K,9.624 ± 0.082 kPa
same,vapor or sublimation pressure,454.7 K,10.13 ± 0.085 kPa
same,vapor or sublimation pressure,455.7 K,10.63 ± 0.12 kPa
same,vapor or sublimation pressure,456.5 K,11.13 ± 0.14 kPa
same,vapor or sublimation pressure,457.2 K,11.63 ± 0.12 kPa
same,vapor or sublimation pressure,458.2 K,12.14 ± 0.12 kPa
same,vapor or sublimation pressure,458.4 K,12.64 ± 0.12 kPa
same,vapor or sublimation pressure,459.8 K,13.14 ± 0.34 kPa
same,vapor or sublimation pressure,460.1 K,13.64 ± 0.23 kPa
same,vapor or sublimation pressure,460.3 K,14.14 ± 0.23 kPa
same,vapor or sublimation pressure,461.1 K,14.65 ± 0.13 kPa
same,vapor or sublimation pressure,462 K,15.15 ± 0.1 kPa
same,vapor or sublimation pressure,463.3 K,15.65 ± 0.11 kPa
same,vapor or sublimation pressure,463.8 K,16.15 ± 0.23 kPa
same,vapor or sublimation pressure,464.2 K,16.66 ± 0.29 kPa
same,vapor or sublimation pressure,464.5 K,17.16 ± 0.2 kPa
same,vapor or sublimation pressure,465.2 K,17.66 ± 0.16 kPa
same,vapor or sublimation pressure,465.8 K,18.16 ± 0.14 kPa
same,vapor or sublimation pressure,466.7 K,18.67 ± 0.14 kPa
same,vapor or sublimation pressure,467.3 K,19.17 ± 0.19 kPa
same,vapor or sublimation pressure,467.8 K,19.67 ± 0.21 kPa
same,vapor or sublimation pressure,468.3 K,20.17 ± 0.21 kPa
same,vapor or sublimation pressure,468.8 K,20.67 ± 0.18 kPa
same,vapor or sublimation pressure,469.5 K,21.18 ± 0.28 kPa
same,vapor or sublimation pressure,469.7 K,21.68 ± 0.3 kPa
same,vapor or sublimation pressure,469.8 K,22.18 ± 0.51 kPa
same,vapor or sublimation pressure,470.1 K,22.68 ± 0.51 kPa
same,vapor or sublimation pressure,470.3 K,23.19 ± 0.39 kPa
same,vapor or sublimation pressure,470.4 K,23.69 ± 0.39 kPa
same,vapor or sublimation pressure,470.5 K,24.19 ± 0.39 kPa
same,vapor or sublimation pressure,471.1 K,24.69 ± 0.23 kPa
same,vapor or sublimation pressure,471.4 K,25.2 ± 0.26 kPa
same,vapor or sublimation pressure,471.9 K,25.7 ± 0.21 kPa

# From the NIST ThermoML archive (doi:10.1016/j.fluid.2011.06.020)
